Results on 23 compounds are retold here after patent publication US20170334899A1, “AMINO-SUBSTITUTED ISOTHIAZOLES” (Bayer Pharma Aktiengesellschaft, priority 2014, published 2017).

pIC50: −log10 of the molar value. Like-named read-outs stand apart in the source and are kept apart here.

Test [1] has as its system HeLa. The experiment in a line: Proliferation assay (crystal violet), HeLa. It counts as cell-based. To be noted: HeLa cells, 4 days incubation, crystal violet staining, read-out: IC50 inhibition of proliferation, HeLa. The method in brief:
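Absorbance at 595 nm of crystal-violet-stained cells after 4 days' exposure to 0.001–10 μM compound (0.5% DMSO). Values normalized to a day-0 plate (0%) and untreated cells (100%); IC50 by 4-parameter fit.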

Test [2] concerns human cervical tumor cell line HeLa (ATCC CCL-2). The experiment in a line: SAC-Formation - Nocodazole-Induced Assay. It counts as cell-based. To be noted: Homo sapiens, HeLa, 24 h, HeLa cells, nocodazole 0.1 μg/ml together with test compound, decrease of mitotic cells (phospho-histone H3 Ser10). The method in brief:
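Loss of phospho-histone H3 Ser10-positive cells, counted against Hoechst-stained nuclei by high-content imaging, marked mitotic breakthrough. Compounds (0.005–20 μM, 0.5% DMSO) were co-dosed with 0.1 μg/ml nocodazole onto HeLa cells for 24 h at 37 °C. Curves were fitted with a four-parameter Hill equation.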

Turning to `Cc1nsc(Nc2cnc(C(F)(F)F)cn2)c1C(=O)Nc1ccc(O[C@H]2CCN(CCC(F)(F)F)C2)nc1` [Example 384, 3-methyl-5-{[5-(trifluoromethyl)pyrazin-2-yl]amino}-N-(6-{[(3S)-1-(3,3,3-trifluoropropyl)pyrrolidin-3-yl]oxy}pyridin-3-yl)-1,2-thiazole-4-carboxamide], the pIC50 in test [1] (Homo sapiens, HeLa, 96 h) is 6.47; in test [2], 7.21.

As for `Cc1nsc(Nc2cnc3ccccc3n2)c1C(=O)Nc1ccc(OC2CCCN(CC(F)F)C2)nc1` (stereo not shown) [Example 33, N-(6-{[1-(2,2-Difluoroethyl)piperidin-3-yl]oxy}pyridin-3-yl)-3-methyl-5-(quinoxalin-2-ylamino)-1,2-thiazole-4-carboxamide], the pIC50 in test [1] (Homo sapiens, HeLa, 96 h) is 5.62; in test [2], 5.85.

Turning to `Cc1nsc(Nc2cncc(C(F)(F)F)n2)c1C(=O)Nc1ccc(F)c(OC2CCN(CCC(F)(F)F)CC2)c1` [Example 343, N-(4-fluoro-3-{[1-(3,3,3-trifluoropropyl)piperidin-4-yl]oxy}phenyl)-3-methyl-5-{[6-(trifluoromethyl)pyrazin-2-yl]amino}-1,2-thiazole-4-carboxamide], the pIC50 was 5.85 in test [1] (Homo sapiens, HeLa, 96 h) and 6.68 in test [2].

With `Cc1nsc(Nc2cnc(C(F)(F)F)cn2)c1C(=O)Nc1ccc(OC2CCCN(C(CF)CF)C2)nc1` (stereo not shown) [Example 333, N-(6-{[1-(1,3-difluoropropan-2-yl)piperidin-3-yl]oxy}pyridin-3-yl)-3-methyl-5-{[5-(trifluoromethyl)pyrazin-2-yl]amino}-1,2-thiazole-4-carboxamide], the pIC50 in test [1] (Homo sapiens, HeLa, 96 h) was 5.92; in test [2], 7.14.

For `Cc1nsc(Nc2cnc(C(F)(F)F)cn2)c1C(=O)Nc1ccc(F)c(OC[C@H]2CCN(CC(F)F)C2)c1` [Example 397, N-(3-{[(3S)-1-(2,2-difluoroethyl)pyrrolidin-3-yl]methoxy}-4-fluorophenyl)-3-methyl-5-{[5-(trifluoromethyl)pyrazin-2-yl]amino}-1,2-thiazole-4-carboxamide], the pIC50 in test [1] (Homo sapiens, HeLa, 96 h) was 6.08; in test [2] it was 7.51.

As to `Cc1nsc(Nc2cnc(C(F)(F)F)cn2)c1C(=O)Nc1ccc(C2CCN(CC(F)F)CC2)nc1` [Example 357, N-{6-[1-(2,2-difluoroethyl)piperidin-4 yl]pyridin-3-yl}-3-methyl-5-{[5-(trifluoromethyl)pyrazin-2-yl]amino}-1,2-thiazole-4-carboxamide], the pIC50 in test [1] (Homo sapiens, HeLa, 96 h) was 6.37; in test [2], 7.36.

As for `Cc1nsc(Nc2cnc(C(F)(F)F)cn2)c1C(=O)Nc1ccc(N2CCN(CC(F)F)CC2)cn1` [Example 372, N-{5-[4-(2,2-difluoroethyl)piperazin-1-yl]pyridin-2-yl}-3-methyl-5-{[5-(trifluoromethyl)pyrazin-2-yl]amino}-1,2-thiazole-4-carboxamide], the pIC50 in test [1] (Homo sapiens, HeLa, 96 h) is 5.82; in test [2] it was 6.92.

For `Cc1nsc(Nc2cnc(C(F)(F)F)cn2)c1C(=O)Nc1ccc(OCCCN(C)CC(F)(F)F)nc1` [Example 354, 3-methyl-N-(6-{3-[methyl(2,2,2-trifluoroethyl)amino]propoxy}pyridin-3-yl)-5-{[5-(trifluoromethyl)pyrazin-2-yl]amino}-1,2-thiazole-4-carboxamide], the pIC50 in test [1] (Homo sapiens, HeLa, 96 h) was 6.48; in test [2] it was 6.96.

As for `Cc1nsc(Nc2cnc(C(F)(F)F)cn2)c1C(=O)Nc1ccc(F)c(OC[C@@H]2CCCN(CC(F)(F)F)C2)c1` [Example 342, N-(4-fluoro-3-{[(3R)-1-(2,2,2-trifluoroethyl)piperidin-3-yl]methoxy}phenyl)-3-methyl-5-{[5-(trifluoromethyl)pyrazin-2-yl]amino}-1,2-thiazole-4-carboxamide], the pIC50 is 6.33 in test [1] (Homo sapiens, HeLa, 96 h) and 7.14 in test [2].

Regarding `Cc1nsc(Nc2cnc(C(F)(F)F)cn2)c1C(=O)Nc1ccc(O[C@H]2CCN(CCC(F)(F)F)C[C@@H]2F)nc1` [Example 364, N-(6-{[(3S,4S)-3-fluoro-1-(3,3,3-trifluoropropyl)piperidin-4-yl]oxy}pyridin-3-yl)-3-methyl-5-{[5-(trifluoromethyl)pyrazin-2-yl]amino}-1,2-thiazole-4-carboxamide], the pIC50 was 6.54 in test [1] (Homo sapiens, HeLa, 96 h) and 7.92 in test [2].

As for `Cc1nsc(Nc2cnc(C(F)(F)F)cn2)c1C(=O)Nc1ccc(OC[C@@H]2CCCN(CC(F)(F)F)C2)nc1` [Example 376, 3-methyl-N-(6-{[(3R)-1-(2,2,2-trifluoroethyl)piperidin-3-yl]methoxy}pyridin-3-yl)-5-{[5-(trifluoromethyl)pyrazin-2-yl]amino}-1,2-thiazole-4-carboxamide], the pIC50 in test [1] (Homo sapiens, HeLa, 96 h) was 6.51; in test [2], 7.30.

As for `Cc1nsc(Nc2cnc(C(F)(F)F)cn2)c1C(=O)Nc1ccc(C2CCN(CC(F)(F)F)CC2)nc1` [Example 358, 3-methyl-N-{6-[1-(2,2,2-trifluoroethyl)piperidin-4-yl]pyridin-3-yl}-5-{[5-(trifluoromethyl)pyrazin-2-yl]amino}-1,2-thiazole-4-carboxamide], the pIC50 in test [1] (Homo sapiens, HeLa, 96 h) was 6.49; in test [2] it was 7.52.

For `Cc1nsc(Nc2cnc(C(F)(F)F)cn2)c1C(=O)Nc1ccc(F)c(OCC2CCCN(CCF)C2)c1` (stereo not shown) [Example 336, N-(4-fluoro-3-{[1-(2-fluoroethyl)piperidin-3-yl]methoxy}phenyl)-3-methyl-5-{[5-(trifluoromethyl)pyrazin-2-yl]amino}-1,2-thiazole-4-carboxamide], the pIC50 in test [1] (Homo sapiens, HeLa, 96 h) was 6.41; in test [2], 7.31.

For the compound `Cc1nsc(Nc2cnc(C(F)(F)F)cn2)c1C(=O)Nc1ccc(O[C@@H]2CCN(CCC(F)(F)F)C[C@H]2F)nc1` [Example 368, N-(6-{[(3R,4R)-3-fluoro-1-(3,3,3-trifluoropropyl)piperidin-4-yl]oxy}pyridin-3-yl)-3-methyl-5-{[5-(trifluoromethyl)pyrazin-2-yl]amino}-1,2-thiazole-4-carboxamide], the pIC50 in test [1] (Homo sapiens, HeLa, 96 h) was 6.46; in test [2], 7.80.

`Cc1nsc(Nc2cnc(C(F)(F)F)cn2)c1C(=O)Nc1ccc(F)c(OCC2CCCN(CC(F)F)C2)c1` (stereo not shown) [Example 334, N-(3-{[1-(2,2-difluoroethyl)piperidin-3-yl]methoxy}-4-fluorophenyl)-3-methyl-5-{[5-(trifluoromethyl)pyrazin-2-yl]amino}-1,2-thiazole-4-carboxamide]: the pIC50 is 6.43 in test [1] and 7.33 in test [2].

Turning to `Cc1nsc(Nc2ccc(C#N)cn2)c1C(=O)Nc1ccc(OC2CCN(CCF)CC2)nc1` [Example 29, 5-[(5-Cyanopyridin-2-yl)amino]-N-(6-{[1-(2-fluoroethyl)piperidin-4-yl]oxy}pyridin-3-yl)-3-methyl-1,2-thiazole-4-carboxamide], the pIC50 in test [1] (Homo sapiens, HeLa, 96 h) was 5.00; in test [2], 4.80.

On to `Cc1nsc(Nc2cnc(C(F)(F)F)cn2)c1C(=O)Nc1ccc(O[C@H]2CCN(CC(F)F)C[C@@H]2F)nc1` [Example 362], for which the pIC50 was 6.47 in test [1] (Homo sapiens, HeLa, 96 h) and 8.64 in test [2].

For `Cc1nsc(Nc2cnc(C(F)(F)F)cn2)c1C(=O)Nc1ccc(O[C@@H]2CCN(CC(F)(F)F)C2)nc1` [Example 380, 3-methyl-N-(6-{[(3R)-1-(2,2,2-trifluoroethyl)pyrrolidin-3-yl]oxy}pyridin-3-yl)-5-{[5-(trifluoromethyl)pyrazin-2-yl]amino}-1,2-thiazole-4-carboxamide], the pIC50 in test [1] (Homo sapiens, HeLa, 96 h) was 6.26; in test [2], 6.47.

`Cc1nsc(Nc2cnc(C(F)(F)F)cn2)c1C(=O)Nc1ccc(O[C@@H]2CCCN(CC(F)(F)F)C2)nc1` [Example 386, 3-methyl-N-(6-{[(3R)-1-(2,2,2-trifluoroethyl)piperidin-3-yl]oxy}pyridin-3-yl)-5-{[5-(trifluoromethyl)pyrazin-2-yl]amino}-1,2-thiazole-4-carboxamide]: the pIC50 is 6.54 in test [1] (Homo sapiens, HeLa, 96 h) and 7.39 in test [2].

`Cc1nsc(Nc2cnc(C(F)(F)F)cn2)c1C(=O)Nc1ccc(OCCN(C)CC(F)(F)F)nc1` [Example 350, 3-methyl-N-(6-{2-[methyl(2,2,2-trifluoroethyl)amino]ethoxy}pyridin-3-yl)-5-{[5-(trifluoromethyl)pyrazin-2-yl]amino}-1,2-thiazole-4-carboxamide]: the pIC50 was 6.55 in test [1] (Homo sapiens, HeLa, 96 h) and 7.00 in test [2].

Consider `Cc1nsc(Nc2cnc(C(F)(F)F)cn2)c1C(=O)Nc1ccc(OCC2CCN(CC(F)F)CC2)nc1` [Example 345, N-(6-{[1-(2,2-difluoroethyl)piperidin-4-yl]methoxy}pyridin-3-yl)-3-methyl-5-{[5-(trifluoromethyl)pyrazin-2-yl]amino}-1,2-thiazole-4-carboxamide], for which the pIC50 in test [1] (Homo sapiens, HeLa, 96 h) is 6.57; in test [2] it was 7.55.

As for `Cc1nsc(Nc2cnc(C(F)(F)F)cn2)c1C(=O)Nc1ccc(F)c(OC[C@H]2CCN(CCC(F)(F)F)C2)c1` [Example 399, N-(4-fluoro-3-{[(3S)-1-(3,3,3-trifluoropropyl)pyrrolidin-3-yl]methoxy}phenyl)-3-methyl-5-{[5-(trifluoromethyl)pyrazin-2-yl]amino}-1,2-thiazole-4-carboxamide], the pIC50 in test [1] (Homo sapiens, HeLa, 96 h) was 6.19; in test [2], 7.54.

Consider `Cc1nsc(Nc2cnc3ccccc3n2)c1C(=O)Nc1ccc(OC2CCCNC2)nc1` (stereo not shown) [Example 32, 3-Methyl-N-[6-(piperidin-3-yloxy)pyridin-3-yl]-5-(quinoxalin-2-ylamino)-1,2-thiazole-4-carboxannide], for which the pIC50 in test [1] (Homo sapiens, HeLa, 96 h) is 5.10; in test [2], 5.40.
